Test results reported in PMC8851282, “Senolysis induced by 25-hydroxycholesterol targets CRYAB in multiple cell types” (iScience, 2022).

Experiments:
[1] = tested on: human cardiac microvascular endothelial cells (hCMECs); experiment: Cell viability assay of NS and Doxo- or IR-induced senescent hCMECs treated with 25HC; type: cell-based; conditions: 10 μM after 15 days of treatment; Doxo or IR induced senescence
Experimental: Figure 7 25HC treatment timeline and its effects on NS and SEN hCMECs, hLSCs, hRPTECs, and hACs All cell types were treated with either DMSO, 250 nM Doxo or 10-Gy IR at the times shown. 25HC treatment was started 24 h after Doxo or IR treatment. Cell viability was measured every 3–5 days for 15 days. Optimal treatment times for maximum senolysis are shown for each cell type: day 15 for hCMECs, day 3 for hLSCs, day 9 for hRPTECs and day 12 for hACs. For qRT-PCR: mean ± SE, n =4, ∗p< 0.05, ∗∗p< 0.01, ∗∗∗p<0.001, ∗∗∗∗p<0.0001 by Dunnett’s multiple comparisons test vs DMSO or NS, For cell viability assays: mean ± SE, n =3, ∗∗p< 0.01, ∗∗∗p<0.001, ∗∗∗∗p<0.0001 vs 0 mM by student’s t test.
All experiments were performed in incubators at 37 °C, 3% O2 and 5% CO2. Senescence was induced by treatment with either Doxo (250 nM for 24 h) ([Demaria et al., 2017]) or X-irradiation (10 Gy) ([Limbad et al., 2020]). […]
Cell viability was assessed using a cell counting kit-8 from Dojindo Molecular Technologies, Inc (Cat CK04-20). […] The supernatant was transferred to a new 96-well plate and absorbance read at 450 nm as recommended in the product datasheet. […]
Supplementary Fig. 10 (related to Fig. 6-7). […] Cel l vi abi l i ty was measured every 3–5 days until 15 days. […] Cel l vi abi l i ty was measured every 3–5 days until 15 days. […]

CRYAB = tested on: CRYAB; design: method as in Makley et al., 2015; conditions: ref Makley et al., 2015; cited from earlier work
15-d-PGJ2 = 15-d-PGJ2 ELISA in urine of Doxo-treated mice given 25HC; type: in vivo, mouse; conditions: urine collected after the first treatment with 25HC 50 mg/kg i.p. (24 h per Figure 8, 12 hr per methods)
Experimental: Figure 8 25HC induces senolysis in vivo in Doxo-treated mice (A) Timeline of 25HC treatment in Doxo-treated mice. Mice were given 4 mg/kg Doxo or PBS for 5 daily injections[A1], then injected with 25HC or vehicle for 7 consecutive days. (B) Mass of gastrocnemius muscles. Muscle weight was normalized to body weight. (C) Cdkn2a and Cryab mRNA levels in gastrocnemius (Gastroc) and soleus (Sol) muscles. RNA was collected 28–30 d after the first treatment with Doxo. mRNA levels were quantified by qRT-PCR, and normalized to actin mRNA levels. The average value of PBS-vehicle was set at 1. (D) 15-d-PGJ2 analysis in urine. […]
Male C57BL/6J mice (3–4 months old) were purchased from the Jackson Laboratory. […] Senescence markers p16^INK4a, p21^Cip1 and CRYAB expression was analyzed on gastrocnemius (Gastroc), soleus (So), tibialis anterior (TA), visceral fat (VF), kidney (Ki), liver (Li), lung (Lu), heart (He), and skin (Sk) samples by qRT-PCR.
Urine was collected at 12 or 24 h after the first treatment with 25HC or vehicle and diluted 10-fold with assay buffer. The amount of 15-d-PGJ2 was measured using a 15-deoxy-Δ^12,14-PGJ2 ELISA kit according to manufactures’ protocol (Enzo Life Sciences).

Compound: C[C@H](CCCC(C)(C)O)[C@H]1CC[C@H]2[C@@H]3CC=C4C[C@@H](O)CC[C@]4(C)[C@H]3CC[C@]12C [25HC, 25-hydroxycholesterol]
- senolysis in hCMECs [1]: induced significant senolysis
- CRYAB aggregation (CRYAB): blocks CRYAB aggregation
- 15-d-PGJ2 levels in urine (15-d-PGJ2): increased significantly
